Data: PubChem BioAssay AID248 (DTP/NCI, 2004)
“And” between values parts separate entries of the source, which are not always exact repeats. Equal entries are not always repeated. Inconclusive results and toxic doses are left out. No stated cut-off is given here; in the data, active means T/C of 150% or more; inactive means T/C below 125%. Square brackets hold non-standard residues; d marks the D form. Peptide text beside a SMILES is read from it. ξ: configuration not given here. ξN = NC(=O)CC(N)C(=O)O

Tested on: L1210 leukemia ip in BDF1 mice, survival T/C
Assay: NCI In Vivo Anticancer Drug Screen. Data for tumor model L1210 Leukemia (intraperitoneal) in B6D2F1 (BDF1) mice
Conditions: endpoint: mean survival time, higher = longer survival
Procedure, shortened: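 Tumor was transplanted into mice, which were then dosed with test compound or vehicle alone. Survival was recorded for each group, and the treated figure was expressed relative to the control figure.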

[1] = dose: 100.0 mg/kg/injection, schedule: Q01DX009 (ip), vehicle: Klucel (hydroxypropylcellulose) (HPC)
[2] = dose: 100.0 mg/kg/injection, schedule: Q04DX003 (ip), vehicle: Klucel (hydroxypropylcellulose) (HPC)
[3] = dose: 200.0 mg/kg/injection, schedule: Q01DX009 (ip), vehicle: Klucel (hydroxypropylcellulose) (HPC)
[4] = dose: 200.0 mg/kg/injection, schedule: Q04DX003 (ip), vehicle: Klucel (hydroxypropylcellulose) (HPC)
[5] = dose: 400.0 mg/kg/injection, schedule: Q01DX009 (ip), vehicle: Klucel (hydroxypropylcellulose) (HPC)
[6] = dose: 400.0 mg/kg/injection, schedule: Q04DX003 (ip), vehicle: Klucel (hydroxypropylcellulose) (HPC)
[7] = dose: 25.0 mg/kg/injection, schedule: Q04DX003 (ip), vehicle: saline
[8] = dose: 75.0 mg/kg/injection, schedule: Q01DX001 (ip), vehicle: saline
[9] = dose: 100.0 mg/kg/injection, schedule: Q01DX001 (ip), vehicle: other
[10] = dose: 200.0 mg/kg/injection, schedule: Q01DX001 (ip), vehicle: other
[11] = dose: 400.0 mg/kg/injection, schedule: Q01DX001 (ip), vehicle: other
[12] = dose: 100.0 mg/kg/injection, schedule: Q01DX001 (ip), vehicle: Klucel (hydroxypropylcellulose) (HPC)
[13] = dose: 200.0 mg/kg/injection, schedule: Q01DX001 (ip), vehicle: Klucel (hydroxypropylcellulose) (HPC)

Measured: T/C

Cc1ccc(NC(=O)c2ccccc2)cc1[As]=[As]c1cc(NC(=O)c2ccccc2)ccc1C (centres undefined)
inactive: dose: 1.0 mg/kg/injection, schedule: Q01DX015 (ip), vehicle: carboxymethylcellulose (CMC) 90 % of control | dose: 2.0 mg/kg/injection, schedule: Q01DX015 (ip), vehicle: carboxymethylcellulose (CMC) 95 % of control | dose: 4.0 mg/kg/injection, schedule: Q01DX015 (ip), vehicle: carboxymethylcellulose (CMC) 101 % of control

O=C(Nc1ccccc1F)C(c1ccccc1)c1ccccc1
inactive: [1] 103 % of control | [2] 96 % of control | [3] 93 % of control | [4] 95 % of control | [5] 94 % of control | [6] 95 % of control

C#CC(N)=O
inactive: dose: 3.0 mg/kg/injection, schedule: Q01DX009 (ip), vehicle: saline 100 % of control | dose: 6.0 mg/kg/injection, schedule: Q01DX009 (ip), vehicle: saline 96 % of control | dose: 12.0 mg/kg/injection, schedule: Q01DX009 (ip), vehicle: saline 94 % of control | [7] 107 % of control | dose: 50.0 mg/kg/injection, schedule: Q04DX003 (ip), vehicle: saline 106 % of control | [8] 107 % of control

OCCN1CCN(CC/C=C2\c3ccccc3Sc3ccc(Cl)cc32)CC1
inactive: dose: 0.39 mg/kg/injection, schedule: Q03HX024 (ip), vehicle: saline 100 % of control | dose: 0.78 mg/kg/injection, schedule: Q03HX024 (ip), vehicle: saline 94 % of control | dose: 1.0 mg/kg/injection, schedule: Q01DX009 (ip), vehicle: saline 101 % of control and 87 % of control | dose: 1.56 mg/kg/injection, schedule: Q03HX024 (ip), vehicle: saline 107 % of control | dose: 2.0 mg/kg/injection, schedule: Q01DX009 (ip), vehicle: saline 95 % of control and 103 % of control | dose: 3.12 mg/kg/injection, schedule: Q01DX009 (ip), vehicle: saline 104 % of control | dose: 3.12 mg/kg/injection, schedule: Q03HX024 (ip), vehicle: saline 111 % of control | dose: 3.12 mg/kg/injection, schedule: Q04DX003 (ip), vehicle: saline 106 % of control | dose: 4.0 mg/kg/injection, schedule: Q01DX009 (ip), vehicle: saline 100 % of control and 106 % of control | dose: 6.25 mg/kg/injection, schedule: Q01DX009 (ip), vehicle: saline 120 % of control | dose: 6.25 mg/kg/injection, schedule: Q04DX003 (ip), vehicle: saline 100 % of control and 105 % of control | dose: 8.0 mg/kg/injection, schedule: Q01DX009 (ip), vehicle: saline 106 % of control and 115 % of control | dose: 9.37 mg/kg/injection, schedule: Q01DX001 (ip), vehicle: saline 106 % of control | dose: 12.5 mg/kg/injection, schedule: Q01DX009 (ip), vehicle: saline 120 % of control and 86 % of control | dose: 12.5 mg/kg/injection, schedule: Q04DX003 (ip), vehicle: saline 108 % of control and 116 % of control | dose: 16.0 mg/kg/injection, schedule: Q01DX009 (ip), vehicle: saline 115 % of control and 89 % of control | dose: 18.75 mg/kg/injection, schedule: Q01DX001 (ip), vehicle: saline 100 % of control | dose: 20.0 mg/kg/injection, schedule: Q04DX003 (ip), vehicle: saline 115 % of control | dose: 25.0 mg/kg/injection, schedule: Q01DX009 (ip), vehicle: saline 124 % of control | [7] 119 % of control | dose: 37.5 mg/kg/injection, schedule: Q01DX001 (ip), vehicle: saline 105 % of control | dose: 40.0 mg/kg/injection, schedule: Q04DX003 (ip), vehicle: saline 105 % of control | [8] 105 % of control

CCN(CC)c1ccc(N=C2C=C(C(=O)Nc3cccc(Cl)c3)C(=O)c3ccccc32)c(C)c1
inactive: [9] 92 % of control | [10] 92 % of control | [11] 96 % of control

CO/C([O-])=N/S(=O)(=O)n1cc[n+](C)c1
inactive: dose: 75.0 mg/kg/injection, schedule: Q01DX009 (ip), vehicle: Klucel (hydroxypropylcellulose) (HPC) 98 % of control | dose: 150.0 mg/kg/injection, schedule: Q01DX009 (ip), vehicle: Klucel (hydroxypropylcellulose) (HPC) 86 % of control | dose: 300.0 mg/kg/injection, schedule: Q01DX009 (ip), vehicle: Klucel (hydroxypropylcellulose) (HPC) 95 % of control

COc1ccc(C(C#N)N2CCCCC2)cc1 (centres undefined)
inactive: dose: 25.0 mg/kg/injection, schedule: Q01DX009 (ip), vehicle: Klucel (hydroxypropylcellulose) (HPC) 102 % of control | dose: 50.0 mg/kg/injection, schedule: Q01DX009 (ip), vehicle: Klucel (hydroxypropylcellulose) (HPC) 101 % of control | [2] 95 % of control | [4] 111 % of control | [6] 101 % of control

COc1cc(C)c2cc(C)cc(C)c2n1
inactive: [9] 95 % of control | [10] 101 % of control | [11] 93 % of control

CC(/C=N/O)=C1C=CC=C1
inactive: [12] 94 % of control | [1] 98 % of control | [2] 102 % of control | [13] 92 % of control | [3] 100 % of control | [4] 98 % of control | dose: 400.0 mg/kg/injection, schedule: Q01DX001 (ip), vehicle: Klucel (hydroxypropylcellulose) (HPC) 97 % of control | [5] 105 % of control | [6] 102 % of control

O=C(COc1ccc(Cl)c(Cl)c1)Nc1ccc[n+](Cc2ccc(Cl)c(Cl)c2)c1
inactive: [2] 90 % of control | [4] 97 % of control | [6] 104 % of control

CC1CN(C(C)(C)C)C1
inactive: dose: 100.0 mg/kg/injection, schedule: Q04DX003 (ip), vehicle: acetone 95 % of control

NCC(=O)NC(CC(N)=O)C(=O)O (centres undefined) (H-Gly-[ξN]-OH)
inactive: dose: 100.0 mg/kg/injection, schedule: Q01DX009 (ip), vehicle: saline 97 % of control | dose: 200.0 mg/kg/injection, schedule: Q01DX009 (ip), vehicle: saline 102 % of control | dose: 400.0 mg/kg/injection, schedule: Q01DX009 (ip), vehicle: saline 97 % of control

CCCCNC(=O)c1cc(Cl)cc(Cl)c1Br
inactive: dose: 100.0 mg/kg/injection, schedule: Q01DX001 (ip), vehicle: saline with Tween-80 91 % of control | dose: 200.0 mg/kg/injection, schedule: Q01DX001 (ip), vehicle: saline with Tween-80 90 % of control | dose: 400.0 mg/kg/injection, schedule: Q01DX001 (ip), vehicle: saline with Tween-80 93 % of control

CC1(C)N=C(N)N=C(N)N1c1ccc(Oc2ccc(S(=O)(=O)F)cc2)cc1
inactive: dose: 50.0 mg/kg/injection, schedule: Q01DX001 (ip), vehicle: Klucel (hydroxypropylcellulose) (HPC) 92 % of control | [12] 95 % of control | [13] 100 % of control

O=C1CS/C(=N/N=C/c2ccccc2)N1
inactive: dose: 50.0 mg/kg/injection, schedule: Q01DX009 (ip), vehicle: saline with Tween-80 104 % of control | dose: 100.0 mg/kg/injection, schedule: Q01DX009 (ip), vehicle: saline with Tween-80 91 % of control | dose: 200.0 mg/kg/injection, schedule: Q01DX009 (ip), vehicle: saline with Tween-80 95 % of control

N=C(N)CNC(=O)c1ccccc1C(=O)O
inactive: dose: 19.0 mg/kg/injection, schedule: Q01DX009 (ip), vehicle: saline 100 % of control | dose: 38.0 mg/kg/injection, schedule: Q01DX009 (ip), vehicle: saline 92 % of control | [8] 103 % of control | dose: 75.0 mg/kg/injection, schedule: Q01DX009 (ip), vehicle: saline 96 % of control | dose: 150.0 mg/kg/injection, schedule: Q01DX001 (ip), vehicle: saline 107 % of control | dose: 150.0 mg/kg/injection, schedule: Q01DX009 (ip), vehicle: saline 100 % of control | dose: 300.0 mg/kg/injection, schedule: Q01DX001 (ip), vehicle: saline 92 % of control
